Like-named read-outs stand apart in the source and are kept apart here.
Assays:
synapsin 1 = assay: Synapsin 1 protein expression in lateral cortex (Western blot); format: in vivo, mouse; settings: adult mice; not significant
Method: (§1) Mice were euthanized by cervical dislocation. Immediately after the sample, fresh tissues were cut isolating 4 brain regions (cerebellum, lateral cortex, olfactory bulb, and the remaining brain), quickly collected and put in cryovials in liquid nitrogen and then kept at −80° C.
(§2) Brain tissues were lysed in RIPA lysis buffer (Invitrogen) and 1% (v/v) protease and phosphatase inhibitor cocktail (Sigma). Proteins were extracted by centrifugation at 14000 rpm at 4° C. for 30 minutes. Bicinchoninic Acid Assay (BCA) kit (1113 catalog #23225 Thermo-Scientific) was used to determine the protein concentration following the manufacturer's instructions. Western blot analyses to determine NMDAR 1 (primary antibody: Abcam, ab68144), PSD95 (Bioss, bs-0179R-TR), p70 (Bioss, bs-3498R-TR) and synapsin 1 (Bioss, bs-3501 R-TR) protein expression were performed using 30 μg per lane of nuclear or lateral cortex lysates. SDS-PAGE was performed on 8% polyacrylamide gels in reducing-denaturing condition and proteins were transferred to a 0.45 μm nitrocellulose membrane (BioRad Laboratories). Signal intensity of immunoreactive bands was analyzed by the Quantity One software (Bio-Rad Laboratories S.r.l.) and was normalized to that of the loading control GAPDH.

[1] = Blood glucose after 2-hours fasting, mice; format: in vivo, mouse; settings: 0.05 mg/kg daily
Method: (§3) Mice were fed with standard diet and fructose (30% w/v in drinking water) was added to their diet 4 days before randomization.
Before sacrifice, the present inventors measured the blood glucose concentration of the mice after a 2-hours fasting.

NMDAR2B = NMDAR2B protein expression in ARPE-19 cells (immunofluorescence); format: cell-based; settings: chronic treatment with psilocin carbamate for 96 hours
Method: (§4) First, the present inventors assessed the expression of three NMDAR subunits (NMDAR1, NMDAR2A, NMDAR2B) and two 5-HT2 subtypes (5-HT2A, 5-HT2C) by immunofluorescence coupled to confocal microscopy. 7,500 cells/well were plated in a 24-well plate on sterile glass coverslips. The next day, the immunofluorescence analysis was performed. The following primary antibodies were used: anti-NMDAR1A (Abcam, ab68144), NMDAR2A (Bioss, bs-3507R-TR), NMDAR2B (Bioss, bs-0222R-TR), 5-HT2A (Bioss, bs-12049R), 5-HT2C (Bioss, 2959R), and the secondary antibody goat anti-rabbit IgG (GeneTex, GTX213110-04). The images of the immunostained cells were acquired by means of a confocal microscope Zeiss LSM 800, using a 63× magnification and can be seen in FIGS. 9A-9E. ImageJ software was used to quantify the intensity of the fluorescent signal.
(§5) 7,500 cells/well were plated in a 24-well plate on sterile glass coverslips. […] After 6 days an immunofluorescence analysis coupled to confocal microscopy was performed with the primary and secondary antibodies described above.

NMDAR2A = NMDAR2A protein expression in ARPE-19 cells (immunofluorescence); format: cell-based; settings: chronic treatment with psilocin carbamate for 96 hours
Method: as §4, §5

c57BL/6 male mice [2] = assay: Toxicity and tolerability observation, high fructose mice; format: in vivo, mouse; settings: young
Method: as §3
During the experiment, the animals were carefully monitored every day for a period not exceeding the maximum experimental endpoints. Access to water (30% w/v fructose) and food ad libitum was allowed. No obvious clinical symptoms were observed during the experimental period.

NMDAR1 = NMDAR1 protein expression in lateral cortex (Western blot); format: in vivo, mouse; settings: 0.05 mg/kg daily
Method: as §1, §2

[3] = Body and liver weight at sacrifice, mice; format: in vivo, mouse; settings: 0.05 mg/kg daily
Method: as §3

p70 = p70 protein expression in lateral cortex (Western blot); format: in vivo, mouse; settings: not detected in adult mice
Method: as §1, §2

PSD95 = PSD95 protein expression in lateral cortex (Western blot); format: in vivo, mouse; settings: not significant
Method: as §1, §2

c57BL/6 male mice [4] = assay: Locomotion Activity Test (LMA), mice; format: in vivo, mouse; settings: chronic (14 day) low dose 0.05 mg/Kg
Method: In order to ascertain whether the chronic administration of low dose psilocin-carbamate alters behavior in tested mice, the present inventors performed the Locomotion Activity Test (LMA), the Novelty Suppressed Feeding (NSF) test and the olfactory habitation/dishabituation test before and after the psilocin-carbamate treatment.
(§6) LMA has the aim of assessing spontaneous locomotor activity in laboratory animals. This test is performed in a gray arena (open field) exposed to light of regulated intensity (24 and 30 lux), avoiding light-shadow zones within the perimeter in which the experiment takes place. Along the base of the open field, 4 standard sized squares have been drawn, clearly visible even in the dark and large enough to allow the animal to remain inside them in all its length. The LMA test has been preceded by one hour of habituation, at the end of which the rat was inserted inside the open field, in one of the previously designed squares. The movements and behaviors in reaction to the environment were then recorded for 10 minutes.
Three fundamental aspects were assessed: 1. the number of crossings, i.e., the number of crossings made by the animal from one square to another, passing the line defining it with both legs. […]

[5] = psilocybin 10, 20, 30 mg; cited from earlier work
[6] = set-up: AUC: unit not given beside the values; settings: cited from earlier work
Western Diet fed rats [7] = assay: Liver histology (hematoxylin-eosin), hepatic steatosis; settings: WD rats, 0.05 mg/kg 15 days; median (range in next column); WD alone 15
Western Diet fed rats [8] = assay: Locomotion Activity Test (LMA), WD rats; format: in vivo, rat; settings: chronic (15 day) low dose 0.05 mg/Kg
Method: as §6, with “In order to ascertain whether the chronic administration of low dose psilocybin alters behavior in WD fed rats, the present inventors performed the Locomotion Activity Test (LMA) before and after the psilocybin treatment (see FIGS. 7A-7C). This test has” for “LMA has”
In the LMA test, three fundamental aspects were assessed: 1. the number of crossings, i.e., the number of crossings made by the animal from one square to another, passing the line defining it with both legs. This value gives an indication of the distance traveled by the animal during the test and of its locomotor activity; 2. the number of rearings, i.e, the number of times the animal lifts up on the two posterior legs. […]

[9] = tested on: Ki67 positive cells in the subventricular zone; assay: Neurogenesis in SVZ, Ki67 positive cells; format: in vivo, rat; settings: WD rats, 0.05 mg/Kg gastric gavage 15 days; WD 2722±225, SD 4601±17
Method: Methods: To perform immunohistochemistry, rats were euthanized and then perfused with 0.9% saline followed by 4% paraformaldehyde (PFA) in 1× phosphate saline buffer (PBS) (rats n tot=8, n=2 for each condition). Rats brains were promptly dissected and then post-fixed in 4% PFA for 48 hours. Brains were embedded in 2.5% agarose (Sigma-Aldrich) and then sectioned in sagittal sections (40 μm thick) at the vibratome (Vibratome VT1000S, Leica). Sagittal brain sections including the subventricular zone, were treated with a blocking solution of 10% normal goat serum (Jackson ImmunoResearch) in 1×PBS for 1 hour and then stained with rabbit anti-Ki67 monoclonal antibody (Abcam, AB 16667) (1:200) overnight. […] Brain sections were mounted with Aqua-Poly/Mount (Polysciences). Images of the sagittal sections containing the subventricular zone were acquired at the confocal microscope (Zeiss LSM 700) equipped with an EC Plan-Neofluar 20×/0.50 M27 objective (Zeiss). Ki67 positive cells were counted along the lateral wall of the lateral ventricles in rat brain sagittal sections, using ImageJ software (RRID: nif-000030467).

With `CC[C@H](C)[C@H](NC(=O)Oc1cccc2[nH]cc(CCN(C)C)c12)C(=O)O` [psilocin-carbamate] the “Synapsin 1 protein expression, lateral cortex” value (synapsin 1) was “tended to increase”, the Blood glucose control ([1]; mice) was “no effect” and the Blood glucose concentration ([1]; old mice) was “tendency towards a lower blood glucose concentration”. The NMDAR2B expression (NMDAR2B) was “reduction”, the NMDAR2A expression (NMDAR2A) was “reduction” and the Safety and tolerability (c57BL/6 male mice [2]; 0.05 mg/kg daily for 14 days, adult and old mice) was “safe and well-tolerated”. The “Signs of toxicity and mortality” value (c57BL/6 male mice [2]; adult, old mice, 0.05 mg/kg gastric gavage, 14 days) was “No signs of toxicity and no mortality”, the “NMDAR1 protein expression, lateral cortex” value (NMDAR1; adult mice) was “tended to decrease” and the “NMDAR1 protein expression, lateral cortex” value (NMDAR1; young and old mice) was “tended to increase”. The “Liver weight at sacrifice” value ([3]; adult mice) was “decrease”, the “Body weight at sacrifice” value ([3]; adult mice, p<0.05) was “decrease” and the “Body and liver weight” value ([3]; young mice) was “no effect”. The “p70 protein expression, lateral cortex” value (p70) was “no significant differences”, the “PSD95 protein expression, lateral cortex” value (PSD95; adult mice, tendency) was “decrease” and the “PSD95 protein expression, lateral cortex” value (PSD95; young mice) was “tended to increase”. The Psychedelic behavioral effects (c57BL/6 male mice [4]) was “no evidence of psychedelic behavioral effects”.

For `CN(C)CCc1c[nH]c2cccc(OP(=O)(O)O)c12` [psilocybin], the “Psychomotor performance, working memory, episodic memory, associative learning, visual perception” value [5] is listed as “dose-dependent negative effects”, the AUC ([6]; 1 mg IV psilocybin) is listed as 240+−55 and the Cmax ([6]; 1 mg IV psilocybin) is listed as 12.9+−5.6 ng/ml. For the same compound, the AUC ([6]; oral psilocybin 10-20 mg) was 1963+−659, the Cmax ([6]; oral psilocybin 10-20 mg) was 8.2+−2.8 ng/ml and the Tmax ([6]; oral psilocybin 10-20 mg) was 105+−37 min. For the same compound, the “% Hepatic macrovescicular steatosis” value (Western Diet fed rats [7]) was 5%, the Psychedelic behavioral effects (Western Diet fed rats [8]) was “no evidence of psychedelic behavioral effects” and the “New cells (Ki67 positive) in SVZ, n” value [9] was 3404±199.

Reference: US12616706B2, “Compositions and methods of use comprising substances with neural plasticity actions administered at non-psychedelic/psychotomimetic dosages and formulations” (Arbormentis LLC, priority 2019, dated 2026)
